Experimental data: US20260092054A1, “FUSED RING COMPOUND AND PHARMACEUTICAL CONTAINING SAME” (KAKEN PHARMACEUTICAL CO., LTD., priority 2022, published 2026)

Assays:
human STAT6/pIL-4Rα = molecular target: T1, human STAT6/pIL-4Rα (Homo sapiens, UniProt P42226); assay: Binding inhibitory activity between human STAT6/pIL-4Rα by fluorescence polarization method; conditions: rhSTAT6 (123-658) / FAM-pIL-4Rα peptide
T1 construct: histidine tag
T1 sequence (P42226 123-658): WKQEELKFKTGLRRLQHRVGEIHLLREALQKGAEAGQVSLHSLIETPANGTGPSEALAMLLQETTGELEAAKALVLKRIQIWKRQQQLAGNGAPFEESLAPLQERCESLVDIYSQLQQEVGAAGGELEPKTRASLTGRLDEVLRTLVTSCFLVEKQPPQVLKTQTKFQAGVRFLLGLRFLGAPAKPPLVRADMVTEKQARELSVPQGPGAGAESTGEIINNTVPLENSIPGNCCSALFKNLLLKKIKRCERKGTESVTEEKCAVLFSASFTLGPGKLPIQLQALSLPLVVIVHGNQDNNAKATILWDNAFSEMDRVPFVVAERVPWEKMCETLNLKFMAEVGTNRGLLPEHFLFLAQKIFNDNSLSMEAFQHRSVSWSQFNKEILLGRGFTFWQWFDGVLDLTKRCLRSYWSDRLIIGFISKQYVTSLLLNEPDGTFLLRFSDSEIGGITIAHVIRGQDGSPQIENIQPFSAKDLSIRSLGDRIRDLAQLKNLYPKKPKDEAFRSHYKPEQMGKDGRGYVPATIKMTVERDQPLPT
Outline: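 His-tagged human STAT6 (residues 123–658, E. coli-expressed) was preincubated with compound for 30 min at RT in the dark, in buffer e.g. 50 mM NaCl, 10 mM HEPES pH 7.0, 1 mM DTT, 1 mM EDTA, 0.01% NP-40. FAM-pIL-4Rα peptide was then added for 30 min. Fluorescence polarisation was read at 485/535 nm, with IC50 interpolated linearly between two points flanking 50%.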

human STAT6 = assay: Human STAT6 dependent reporter activity (IL-4 stimulated STAT6 reporter assay using STAT6-HEK293 cells); format: cell-based; conditions: Homo sapiens, IL-4 stimulation, luciferase activity, read-out: Inhibition rate (%); for inhibition at 0.1 µM: compound 0.1 μmol/L; for inhibition at 1 µM: compound 1 μmol/L

SMILES	IC50 (human STAT6/pIL-4Rα)	inhibition at 0.1 µM (human STAT6)	inhibition at 1 µM (human STAT6)
CCn1c(-c2ccc(-n3c(C)nn(C)c3=O)cc2)cc2nccc(C(=O)Nc3cccc(C(N)=O)c3F)c21 [Ex. 59]	0.39 µM	83%	99%
CCn1c(-c2ccc(-n3c(C)nn(C)c3=O)cn2)cc2cc(C(F)(F)F)cc(C(=O)Nc3ccc(F)c(C(N)=O)c3)c21 [Ex. 61]	0.47 µM	93%	100%
COCCn1c(-c2ccc(-n3c(C)nn(C)c3=O)cc2)cc2cc(C(F)(F)F)cc(C(=O)Nc3ccc4c(c3)C(=O)NCC4)c21 [Ex. 62]	0.45 µM	59%	99%
CCn1c(-c2ccc(-n3cnn(C)c3=O)cn2)cc2cc(C(F)(F)F)cc(C(=O)Nc3cccc(C(N)=O)c3F)c21 [Ex. 65]	0.44 µM	50%	98%
CCn1c(-c2ccc(N3CCOCC3=O)cc2)cc2cc(C(F)(F)F)cc(C(=O)Nc3cccc(C(N)=O)c3F)c21 [Ex. 66]	0.32 µM	58%	99%
Cc1nn(C)c(=O)n1-c1ccc(-c2cc3cc(C(F)(F)F)cc(C(=O)Nc4ccc(F)c(C(N)=O)c4)c3n2CC2CC2)cc1 [Ex. 67]	0.58 µM	56%	96%
CCn1c(-c2ccc(-n3c(C)nn(C)c3=O)cc2)cc2c(Cl)ccc(C(=O)Nc3ccc(F)c(C(N)=O)c3)c21 [Ex. 68]	0.35 µM	59%	100%
COCCn1c(-c2ccc(-n3c(C)nn(C)c3=O)cc2)cc2cc(C(F)(F)F)cc(C(=O)Nc3ccccn3)c21 [Ex. 69]	0.29 µM	61%	100%
COCCn1c(-c2ccc(-n3c(C)nn(C)c3=O)cc2)cc2cc(C(F)(F)F)cc(C(=O)Nc3cccnc3OC)c21 [Ex. 70]	0.76 µM	-6%	45%
CCn1c(-c2ccc(-n3c(C)nn(C)c3=O)cc2F)cc2cc(C(F)(F)F)cc(C(=O)Nc3ccc(F)c(C(N)=O)c3)c21 [Ex. 72]	0.34 µM	65%	97%
COCCn1c(-c2ccc(-n3c(C)nn(C)c3=O)cc2)cc2cc(C(F)(F)F)cc(C(=O)Nc3ccc(C)nc3)c21 [Ex. 73]	0.37 µM	72%	100%
CCn1c(-c2ccc(-n3c(C)nn(C)c3=O)cc2)cc2nc(C(F)(F)F)cc(C(=O)Nc3ccc(F)c(C(N)=O)c3)c21 [Ex. 74]	0.48 µM	21%	91%
CCn1c(-c2ccc(-n3c(C)nn(C)c3=O)cc2)cc2nc(C(F)(F)F)cc(C(=O)Nc3cccc(C(N)=O)c3F)c21 [Ex. 75]	0.36 µM	36%	93%
CCn1c(-c2ccc(-n3c(C)nn(C)c3=O)cc2)cc2c(F)ccc(C(=O)Nc3ccc(F)c(C(N)=O)c3)c21 [Ex. 76]	0.36 µM	31%	94%
CCn1c(-c2ccc(-n3c(C)nn(C)c3=O)cc2)cc2c(F)ccc(C(=O)Nc3cccc(C(N)=O)c3F)c21 [Ex. 77]	0.59 µM	73%	99%
COCCn1c(-c2ccc(-n3c(C)nn(C)c3=O)cc2)cc2cc(C(F)(F)F)cc(C(=O)Nc3cccc(OC)n3)c21 [Ex. 78]	0.34 µM	89%	100%
COCCn1c(-c2ccc(-n3c(C)nn(C)c3=O)cc2)cc2cc(C(F)(F)F)cc(C(=O)Nc3ccnn3C)c21 [Ex. 80]	0.4 µM	4%	61%
CCn1c(-c2ccc(-n3c(C)nn(C)c3=O)cc2)cc2cc(C(F)(F)F)nc(C(=O)Nc3cccc(C(N)=O)c3F)c21 [Ex. 83]	0.37 µM	68%	98%
COCCn1c(-c2ccc(-n3c(C)nn(C)c3=O)cc2)cc2cc(C(F)(F)F)cc(C(=O)Nc3nnc(C)s3)c21 [Ex. 84]	0.24 µM	93%	100%
COCCn1c(-c2ccc(-n3c(C)nn(C)c3=O)cc2)cc2cc(C(F)(F)F)cc(C(=O)Nc3nccs3)c21 [Ex. 85]	0.34 µM	11%	73%
COCCn1c(-c2ccc(-n3c(C)nn(C)c3=O)cc2)cc2cc(C(F)(F)F)cc(C(=O)Nc3ccnnc3)c21 [Ex. 88]	0.42 µM	9%	76%
COCCn1c(-c2ccc(-n3c(C)nn(C)c3=O)cc2)cc2cc(C(F)(F)F)nc(C(=O)Nc3ccc(F)c(C(N)=O)c3)c21 [Ex. 90]	0.28 µM	63%	99%

SMILES	IC50 (human STAT6/pIL-4Rα)	inhibition at 0.1 µM (human STAT6)	inhibition at 1 µM (human STAT6)
COCCn1c(-c2ccc(-n3c(C)nn(C)c3=O)cc2)cc2cc(C(F)(F)F)nc(C(=O)Nc3cccc(C(N)=O)c3)c21 [Ex. 91]	0.25 µM	67%	99%
Cc1nn(C)c(=O)n1-c1ccc(-c2cc3cc(C(F)(F)F)nc(C(=O)Nc4ccc(F)c(C(N)=O)c4)c3n2C)cc1 [Ex. 92]	0.23 µM	74%	99%
Cc1nn(C)c(=O)n1-c1ccc(-c2cc3cc(C(F)(F)F)nc(C(=O)Nc4cccc(C(N)=O)c4)c3n2C)cc1 [Ex. 93]	0.28 µM	67%	96%
Cc1nn(C)c(=O)n1-c1ccc(-c2cc3cc(C(F)(F)F)nc(C(=O)Nc4cccc(C(N)=O)c4F)c3n2C)cc1 [Ex. 94]	0.31 µM	79%	
COCCn1c(-c2ccc(-n3c(C)nn(C)c3=O)cc2)cc2cc(C(F)(F)F)cc(C(=O)Nc3cccc(N)n3)c21 [Ex. 95]	0.28 µM	74%	
COCCn1c(-c2ccc(-n3c(C)nn(C)c3=O)cc2)cc2cc(C(F)(F)F)nc(C(=O)Nc3cccc(C(N)=O)c3F)c21 [Ex. 97]	0.29 µM	89%	
CCn1c(-c2ccc(-n3c(C)nn(C)c3=O)cc2F)cc2ccnc(C(=O)Nc3cccc(C(N)=O)c3F)c21 [Ex. 98]	0.31 µM	60%	100%
CCn1c(-c2ccc(-n3cnn(C)c3=O)cc2)cc2ccnc(C(=O)Nc3cccc(C(N)=O)c3F)c21 [Ex. 99]	0.38 µM	51%	95%
COCCn1c(-c2ccc(-n3c(C)nn(C)c3=O)cc2)cc2cc(C(F)(F)F)cc(C(=O)Nc3cccc(COC)n3)c21 [Ex. 100]	0.3 µM	85%	
CCn1c(-c2ccc(-n3c(C)nn(C)c3=O)cc2)cc2cc(C(F)(F)F)cc(C(=O)Nc3cccc(OC)n3)c21 [Ex. 102]	2.82 µM		60%
Cc1nn(C)c(=O)n1-c1ccc(-c2cc3ccnc(C(=O)Nc4cccc(C(N)=O)c4)c3n2C)cc1 [Ex. 107]	0.29 µM	67%	
Cc1nn(C)c(=O)n1-c1ccc(-c2cc3ccnc(C(=O)Nc4ccc(F)c(C(N)=O)c4)c3n2C)cc1 [Ex. 108]	0.46 µM	52%	97%
Cc1nn(C)c(=O)n1-c1ccc(-c2cc3ccnc(C(=O)Nc4cccc(C(N)=O)c4F)c3n2C)cc1 [Ex. 109]	0.43 µM	62%	
CCn1c(-c2ccc(-n3c(C)nn(C)c3=O)cc2)cc2ncnc(C(=O)Nc3ccc(F)c(C(N)=O)c3)c21 [Ex. 110]	0.43 µM	65%	
Cc1nn(C)c(=O)n1-c1ccc(-c2cc3ccnc(C(=O)Nc4ccc(F)c(C(N)=O)c4)c3n2CCC(F)F)cc1 [Ex. 111]	0.55 µM	25%	80%
Cc1nn(C)c(=O)n1-c1ccc(-c2cc3ccnc(C(=O)Nc4cccc(C(N)=O)c4F)c3n2CCC(F)F)cc1 [Ex. 112]	0.4 µM	38%	93%
Cc1nn(C)c(=O)n1-c1ccc(-c2cc3ccnc(C(=O)Nc4cccc(C(N)=O)c4F)c3n2CCOCC(F)(F)F)cc1 [Ex. 113]	0.44 µM	44%	96%
Cc1nn(C)c(=O)n1-c1ccc(-c2cc3ccnc(C(=O)Nc4ccc(F)c(C(N)=O)c4)c3n2CCOCC(F)(F)F)cc1 [Ex. 114]	0.33 µM	57%	97%
COCCn1c(-c2ccc(-n3c(C)nn(C)c3=O)cc2)cc2cc(C(F)(F)F)cc(C(=O)Nc3cccc(CO)c3)c21 [Ex. 115]	0.43 µM	54%	95%
CCn1c(-c2ccc(-n3c(C)nn(C)c3=O)cc2)cc2cc(C(F)(F)F)cc(C(=O)Nc3cccc(-c4ncc[nH]4)c3)c21 [Ex. 118]	0.23 µM	95%	
Cc1nn(C)c(=O)n1-c1ccc(-c2cc3cccc(C(=O)Nc4cccc(C(N)=O)c4F)c3n2CC2CC2)cc1 [Ex. 119]	0.38 µM	95%	
